This is an account of results in patent publication US10112907B2, “Substituted indazoles for treating tendon and/or ligament injuries” (NOVARTIS AG, priority 2016, dated 2018).

As usually defined, the EC50 is the concentration needed to bring the measured effect to its halfway point.

One assay concerns Scleraxis (Scx) gene transcriptional activation in TT-D6 Scx-luciferase (ScxL) cell line. The assay is described as follows: SCX-LUC in vitro assay (Scx-luciferase reporter). Type of assay: cell-based. As to conditions: Mus musculus, 96 h; Table 3; four days; read-out: Scx-Luc (EC50 μM). (Reporter assays use an easily measured gene product as a stand-in for the process of interest.)
For `Cc1cc(S(=O)(=O)N2CC(C)(O)C2)ccc1-c1ccc2[nH]nc(N)c2c1C` [Example 13, 1-((4-(3-amino-4-methyl-1H-indazol-5-yl)-3-methylphenyl)sulfonyl)-3-methylazetidin-3-ol], the EC50 was 2.33 µM.

As for `Nc1n[nH]c2ccc(-c3ccc(S(=O)(=O)N4CC(F)(F)C[C@H]4CO)cc3F)c(F)c12` [Example 61, (S)-(1-((4-(3-amino-4-fluoro-1H-indazol-5-yl)-3-fluorophenyl)sulfonyl)-4,4-difluoropyrrolidin-2-yl)methanol], the EC50 was determined as 1.5 µM.

For the molecule `Cc1cc(S(=O)(=O)N(C)C2CC(O)(C(F)(F)F)C2)ccc1-c1ccc2[nH]nc(N)c2c1C` (stereo not shown) [Example 83, 4-(3-amino-4-methyl-1H-indazol-5-yl)-N-((1s,3s)-3-hydroxy-3-(trifluoromethyl)cyclobutyl)-N,3-dimethylbenzenesulfonamide], the EC50 was 0.467 µM.

On to `Cc1cc(S(=O)(=O)N2C[C@@H](F)[C@@H](F)C2)ccc1-c1ccc2[nH]nc(N)c2c1C` [Example 82, Meso-5-(4-(((3R,4S)-3,4-difluoropyrrolidin-1-yl)sulfonyl)-2-methylphenyl)-4-methyl-1H-indazol-3-amine], for which the EC50 turned out to be 0.524 µM.

In the case of `Cc1cc(S(=O)(=O)N2C[C@@H](F)C[C@H]2CO)ccc1-c1ccc2[nH]nc(N)c2c1C` [Example 92, ((2S,4S)-1-((4-(3-amino-4-methyl-1H-indazol-5-yl)-3-methylphenyl)sulfonyl)-4-fluoropyrrolidin-2-yl)methanol], the EC50 amounted to 1.01 µM.

`Nc1n[nH]c2ccc(-c3ccc(S(=O)(=O)N[C@H]4C[C@](O)(C(F)(F)F)C4)cc3Cl)c(Cl)c12` [Example 64, 4-(3-amino-4-chloro-1H-indazol-5-yl)-3-chloro-N-((1s,3s)-3-hydroxy-3-(trifluoromethyl)cyclobutyl)benzenesulfonamide]: the concentration for a half-maximal effect (EC50) was found to be 0.474 µM.

With `Cc1c(-c2ccc(S(=O)(=O)NC3CC(F)(F)C3)cc2Cl)ccc2[nH]nc(N)c12` [Example 68, 4-(3-amino-4-methyl-1H-indazol-5-yl)-3-chloro-N-(3,3-difluorocyclobutyl)benzenesulfonamide], the concentration giving a half-maximal response (EC50) amounted to 1.86 µM.

On to `Cc1c(-c2ccc(S(=O)(=O)N3CC[C@@H](O)C3)cc2Cl)ccc2[nH]nc(N)c12` [Example 2, (R)-1-((4-(3-amino-4-methyl-1H-indazol-5-yl)-3-chlorophenyl)sulfonyl)pyrrolidin-3-ol], for which the half-maximal effective concentration (EC50) stood at 0.908 µM.

Turning to `Cc1cc(S(=O)(=O)N2CCC(F)(F)CC2)ccc1-c1ccc2[nH]nc(N)c2c1C` [Example 80, 5-(4-((4,4-difluoropiperidin-1-yl)sulfonyl)-2-methylphenyl)-4-methyl-1H-indazol-3-amine], the EC50 was found to be 2.53 µM.

Take `Cc1cc(S(=O)(=O)N2CCC(F)(F)C2)ccc1-c1ccc2[nH]nc(N)c2c1C` [Example 77, 5-(4-((3,3-difluoropyrrolidin-1-yl)sulfonyl)-2-methylphenyl)-4-methyl-1H-indazol-3-amine]: the concentration for a half-maximal effect (EC50) was 0.692 µM.

On to `Cc1cc(S(=O)(=O)N[C@H]2CC[C@@H](C#N)CC2)ccc1-c1ccc2[nH]nc(N)c2c1C` [Example 27, 4-(3-amino-4-methyl-1H-indazol-5-yl)-N-((1s,4s)-4-cyanocyclohexyl)-3-methylbenzenesulfonamide], for which the EC50 is 1.35 µM.

On to `Cc1cc(S(=O)(=O)N2CC[C@H]2CO)ccc1-c1ccc2[nH]nc(N)c2c1C` [Example 10, (S)-(1-((4-(3-amino-4-methyl-1H-indazol-5-yl)-3-methylphenyl)sulfonyl)azetidin-2-yl)methanol], for which the EC50 came out at 1.79 µM.

`Cc1cc(S(=O)(=O)NC2CC(O)(C(F)(F)F)C2)ccc1-c1ccc2[nH]nc(N)c2c1F` (stereo not shown) [Example 71, 4-(3-amino-4-fluoro-1H-indazol-5-yl)-N-((1s,3s)-3-hydroxy-3-(trifluoromethyl)cyclobutyl)-3-methylbenzenesulfonamide]: the EC50 was 0.108 µM.

Regarding `Cc1cc(S(=O)(=O)N2CCC[C@@H]2CO)ccc1-c1ccc2[nH]nc(N)c2c1C` [Example 20, (R)-(1-((4-(3-amino-4-methyl-1H-indazol-5-yl)-3-methylphenyl)sulfonyl)pyrrolidin-2-yl)methanol], the concentration for a half-maximal effect (EC50) turned out to be 0.723 µM.

Regarding `Cc1cc(S(=O)(=O)N2CC(F)(F)C[C@@H]2CO)ccc1-c1ccc2[nH]nc(N)c2c1C` [Example 88, (R)-(1-((4-(3-amino-4-methyl-1H-indazol-5-yl)-3-methylphenyl)sulfonyl)-4,4-difluoropyrrolidin-2-yl)methanol], the concentration giving a half-maximal response (EC50) was 0.22 µM.

For the molecule `COc1c(-c2ccc(S(=O)(=O)N[C@H]3C[C@](O)(C(F)(F)F)C3)cc2Cl)ccc2[nH]nc(N)c12` [Example 65, 4-(3-amino-4-methoxy-1H-indazol-5-yl)-3-chloro-N-((1s,3s)-3-hydroxy-3-(trifluoromethyl)cyclobutyl)benzenesulfonamide], the 50% effective concentration (EC50) is 1.22 µM.

`Cc1cc(S(=O)(=O)NC2CC(O)(c3ccccc3)C2)ccc1-c1ccc2[nH]nc(N)c2c1C` (stereo not shown) [Example 52, 4-(3-amino-4-methyl-1H-indazol-5-yl)-N-(3-hydroxy-3-phenylcyclobutyl)-3-methylbenzenesulfonamide]: the EC50 is 0.578 µM.

For the molecule `Cc1cc(S(=O)(=O)N2CCC[C@H]2C(C)O)ccc1-c1ccc2[nH]nc(N)c2c1C` (stereo partly drawn) [Example 60, 1-((S)-1-((4-(3-amino-4-methyl-1H-indazol-5-yl)-3-methylphenyl)sulfonyl)pyrrolidin-2-yl)ethan-1-ol], the EC50 was 1.61 µM.

For the molecule `Cc1c(-c2ccc(S(=O)(=O)N3CC(F)(F)C[C@H]3CO)cc2F)ccc2[nH]nc(N)c12` [Example 42, (S)-(1-((4-(3-amino-4-methyl-1H-indazol-5-yl)-3-fluorophenyl)sulfonyl)-4,4-difluoropyrrolidin-2-yl)methanol], the half-maximal effective concentration (EC50) worked out at 0.814 µM.

In the case of `Cc1cc(S(=O)(=O)N[C@]2(C)C[C@H](O)C2)ccc1-c1ccc2[nH]nc(N)c2c1C` [Example 36, 4-(3-amino-4-methyl-1H-indazol-5-yl)-N-((1s,3s)-3-hydroxy-1-methylcyclobutyl)-3-methylbenzenesulfonamide], the EC50 turned out to be 0.806 µM.

Regarding `Cc1c(-c2ccc(S(=O)(=O)N[C@@H]3CCC[C@@H]3O)cc2Cl)ccc2[nH]nc(N)c12` [Example 39, 4-(3-amino-4-methyl-1H-indazol-5-yl)-3-chloro-N-((1R,2S)-2-hydroxycyclopentyl)benzenesulfonamide], the concentration for a half-maximal effect (EC50) turned out to be 0.362 µM.

`Cc1cc(S(=O)(=O)N[C@H]2CCC[C@H]2O)ccc1-c1ccc2[nH]nc(N)c2c1C` [Example 48, 4-(3-amino-4-methyl-1H-indazol-5-yl)-N-((1S,2R)-2-hydroxycyclopentyl)-3-methylbenzenesulfonamide]: the concentration for a half-maximal effect (EC50) turned out to be 0.854 µM.

For `Cc1cc(S(=O)(=O)N[C@@H]2CCCC[C@@H]2O)ccc1-c1ccc2[nH]nc(N)c2c1C` [Example 17, 4-(3-amino-4-methyl-1H-indazol-5-yl)-N-((1R,2S)-2-hydroxycyclohexyl)-3-methylbenzenesulfonamide], the EC50 worked out at 4.8 µM.

As for `Cc1cc(S(=O)(=O)N2CCC[C@H]2CO)ccc1-c1ccc2[nH]nc(N)c2c1Cl` [Example 28, (S)-(1-((4-(3-amino-4-chloro-1H-indazol-5-yl)-3-methylphenyl)sulfonyl)pyrrolidin-2-yl)methanol], the EC50 was determined as 0.436 µM.

Still in this assay, the particulars now being: Mus musculus; Table 1; read-out: Scx-Luc (EC50 uM).
With `Cc1cnc(Nc2ccc(OCCN3CCCC3)cc2)nc1Nc1cccc(S(=O)(=O)NC(C)(C)C)c1` [reference compound], the 50% effective concentration (EC50) came to 0.62 µM.
